The test system of this test is HCV replicon I389luc-ubi-neo/NS3-3′/ET in ET (Huh-lucubineo-ET) cells; screening for HCV RNA dependent RNA polymerase. Put plainly: Replicon Assay (luciferase, ET cell line Huh-lucubineo-ET). The conditions noted are these: Hepatitis C virus; inhibition of replication relative to no compound control; test concentration of 10 μM according to the fitted equation; luciferase 48-72 hours. In kind it is cell-based. The procedure, abridged: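 Huh-derived ET cells stably carrying an I389luc-ubi-neo/NS3-3′/ET HCV replicon with a luciferase-ubiquitin-neomycin phosphotransferase fusion and adaptive NS3-5B mutations were cultured in DMEM with 10% fetal calf serum and 250 μg/mL G418. Cells were seeded at 0.5-1.0×10^4 cells/well in 96 well plates and given compound after 24 hrs. Luciferase was read 48-72 hours later with Bright-Glo reagents, and replication inhibition was expressed relative to untreated controls.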
Background: A replicon is a self-replicating genome or part of one, used to study replication in cells.
As a reminder, the inhibition is the change of the read-out against control, counted positive when it falls. Read a high inhibition as strong suppression. `O=C(NC1CCCC1)c1ccc(-c2csc(NC(=O)[C@@H]3CCCN3C(=O)OCc3ccccc3)n2)cc1` [Compound 5100, 2-[4-(4-Cyclopentylcarbamoyl-phenyl)-thiazol-2-ylcarbamoyl]-pyrrolidine-1-carboxylic acid benzyl ester] registered an inhibition at 10 µM of 99.1%. The molecule `O=C(Nc1nc(-c2ccc(Cl)cc2Cl)cs1)[C@@H]1CCCN1C(=O)OCc1ccccc1` [Compound 5101, 2-[4-(2,4-Dichloro-phenyl)-thiazol-2-ylcarbamoyl]-pyrrolidine-1-carboxylic acid benzyl ester] showed an inhibition at 10 µM of 69.2%. Next, `CC(C)Cc1ccc(-c2csc(NC(=O)[C@@H]3CCCN3C(=O)OCc3ccccc3)n2)cc1` [Compound 5102, 2-[4-(4-Isobutyl-phenyl)-thiazol-2-ylcarbamoyl]-pyrrolidine-1-carboxylic acid benzyl ester]: 9.8%. For the molecule `O=C(Nc1nc(-c2ccccc2Cl)cs1)[C@@H]1CCCN1C(=O)OCc1ccccc1` [Compound 5103, 2-[4-(2-Chloro-phenyl)-thiazol-2-ylcarbamoyl]-pyrrolidine-1-carboxylic acid benzyl ester], the inhibition at 10 µM is 99.3%. The molecule `O=C(Nc1nc(-c2ccc(-n3nncc3-c3ccccc3)cc2)cs1)[C@@H]1CCCN1C(=O)OCc1ccccc1` [Compound 5104, 2-{4-[4-(5-Phenyl-[1,2,3]triazol-1-yl)-phenyl]-thiazol-2-ylcarbamoyl}-pyrrolidine-1-carboxylic acid benzyl ester] came in with an inhibition at 10 µM of 97.3%. `CNC(=O)c1ccc(-c2csc(NC(=O)[C@@H]3CCCN3C(=O)OCc3ccccc3)n2)cc1` [Compound 5105, 2-[4-(4-Methylcarbamoyl-phenyl)-thiazol-2-ylcarbamoyl]-pyrrolidine-1-carboxylic acid benzyl ester]: the inhibition at 10 µM was 100%. Next, `O=C(O)c1ccc(-c2csc(NC(=O)[C@@H]3CCCN3C(=O)OCc3ccccc3)n2)cc1` [Compound 5106, 2-[4-(4-Carboxy-phenyl)-thiazol-2-ylcarbamoyl]-pyrrolidine-1-carboxylic acid benzyl ester]: 46.3%; `O=C(Nc1cccc(-c2cnc(NC(=O)[C@@H]3CCCN3C(=O)OCc3ccccc3)s2)c1)C1CC1` [Compound 5108, 2-{5-[3-(Cyclopropanecarbonyl-amino)-phenyl]-thiazol-2-ylcarbamoyl}-pyrrolidine-1-carboxylic acid benzyl ester]: 98.9%.

Turning to `O=C(Nc1ccccc1)c1ccc(-c2csc(NC(=O)C3CCCN3C(=O)OCc3ccccc3)n2)cc1` (centres unmarked) [Compound 5109, 2-[4-(4-Phenylcarbamoyl-phenyl)-thiazol-2-ylcarbamoyl]-pyrrolidine-1-carboxylic acid benzyl ester], the inhibition at 10 µM came out at 100%.

For the molecule `O=C(Nc1ccc(-c2cnc(NC(=O)[C@@H]3CCCN3C(=O)OCc3ccccc3)s2)cc1)C1CCCC1` [Compound 5110, 2-{5-[4-(Cyclopentanecarbonyl-amino)-phenyl]-thiazol-2-ylcarbamoyl}-pyrrolidine-1-carboxylic acid benzyl ester], testing at 10 µM gave an inhibition of 89.6%. Molecule `Nc1ccc(-c2cnc(NC(=O)[C@@H]3CCCN3C(=O)OCc3ccccc3)s2)cc1` [Compound 5111, 2-[5-(4-Amino-phenyl)-thiazol-2-ylcarbamoyl]-pyrrolidine-1-carboxylic acid benzyl ester] returned an inhibition at 10 µM of 40%. Regarding `O=C(Nc1cccc(-c2cnc(NC(=O)[C@@H]3CCCN3C(=O)OCc3ccccc3)s2)c1)c1ccccc1` [Compound 5113, 2-[5-(3-Benzoylamino-phenyl)-thiazol-2-ylcarbamoyl]-pyrrolidine-1-carboxylic acid benzyl ester], the inhibition at 10 µM came to 99.7%. The same measure for `Nc1cccc(-c2cnc(NC(=O)[C@@H]3CCCN3C(=O)OCc3ccccc3)s2)c1` [Compound 5114, 2-[5-(3-Amino-phenyl)-thiazol-2-ylcarbamoyl]-pyrrolidine-1-carboxylic acid benzyl ester]: 25%. Next, `O=C(Nc1cccc(-c2cnc(NC(=O)[C@@H]3CCCN3C(=O)OCc3ccccc3)s2)c1)C1CCCC1` [Compound 5116, 2-{5-[3-(Cyclopentanecarbonyl-amino)-phenyl]-thiazol-2-ylcarbamoyl}-pyrrolidine-1-carboxylic acid benzyl ester]: 100%; `CC(C)NC(=O)c1ccc(-c2csc(NC(=O)C3CCCN3C(=O)OCc3ccccc3)n2)cc1` (centres unmarked) [Compound 5117, 2-[4-(4-Isopropylcarbamoyl-phenyl)-thiazol-2-ylcarbamoyl]-pyrrolidine-1-carboxylic acid benzyl ester]: 99.8%; `O=C(NC1CC1)c1ccc(-c2csc(NC(=O)[C@@H]3CCN3C(=O)OCc3ccccc3)n2)cc1` [Compound 5301, 2-[4-(4-Cyclopropylcarbamoyl-phenyl)-thiazol-2-ylcarbamoyl]-azetidine-1-carboxylic acid benzyl ester]: 100%. The same measure for `O=C(Nc1ccncc1)c1ccc(-c2csc(NC(=O)[C@@H]3CCCN3C(=O)OCc3ccccc3)n2)cc1` [Compound 5302, 2-{4-[4-(Pyridin-4-ylcarbamoyl)-phenyl]-thiazol-2-ylcarbamoyl}-pyrrolidine-1-carboxylic acid benzyl ester]: 100%; for `O=C(NC1CCCCC1)c1ccc(-c2csc(NC(=O)[C@@H]3CCCN3C(=O)OCc3ccccc3)n2)cc1` [Compound 5303, 2-[4-(4-Cyclohexylcarbamoyl-phenyl)-thiazol-2-ylcarbamoyl]-pyrrolidine-1-carboxylic acid benzyl ester]: 100%; for `N#Cc1ccc(-c2csc(NC(=O)[C@@H]3CCCN3C(=O)OCc3ccccc3)n2)cc1` [Compound 5305, 2-[4-(4-Cyanophenyl)-thiazol-2-ylcarbamoyl]-pyrrolidine-1-carboxylic acid benzyl ester]: 76.3%. `CC(C)(CN1CCOCC1)NC(=O)c1ccc(-c2csc(NC(=O)[C@@H]3CCCN3C(=O)OCc3ccccc3)n2)cc1` [Compound 5306, 2-{4-[4-(1,1-Dimethyl-2-morpholin-4-yl-ethylcarbamoyl)-phenyl]-thiazol-2-ylcarbamoyl}-pyrrolidine-1-carboxylic acid benzyl ester] registered an inhibition at 10 µM of 100%. Next, `O=C(NCCN1CCCCC1)c1ccc(-c2csc(NC(=O)[C@@H]3CCCN3C(=O)OCc3ccccc3)n2)cc1` [Compound 5307, 2-{4-[4-(2-Piperidin-1-yl-ethylcarbamoyl)-phenyl]-thiazol-2-ylcarbamoyl}-pyrrolidine-1-carboxylic acid benzyl ester]: 100%; `O=C(Nc1nc(-c2ccc(C(=S)NC3CC3)cc2)cs1)[C@@H]1CCCN1C(=O)OCc1ccccc1` [Compound 5308, 2-[4-(4-Cyclopropylthiocarbamoyl-phenyl)-thiazol-2-ylcarbamoyl]-pyrrolidine-1-carboxylic acid benzyl ester]: 100%; `CC(=O)c1ccc(-c2csc(NC(=O)[C@@H]3CCCN3C(=O)OCc3ccccc3)n2)cc1` [Compound 5309, 2-[4-(4-Acetyl-phenyl)-thiazol-2-ylcarbamoyl]-pyrrolidine-1-carboxylic acid benzyl ester]: 99.5%.

These data come from patent publication US7595398B2, “N-(5-membered aromatic ring)-amido anti-viral compounds” (SmithKline Beecham Corporation, priority 2005, dated 2009).
